One assay has as its target Human mTOR (FLAG-TOR) (Homo sapiens, UniProt P42345). Nature of the assay: mTOR kinase assay (DELFIA format, purified enzyme). Type of assay: biochemical. The note with it: read-out: IC50 mTOR.
In assay [1] the test system is human breast MDA-MB-361 tumor cell line. Nature of the assay: In vitro cell culture growth assay (MTS), MDA-MB-361. The note with it: Homo sapiens, MTS cell growth assay, three days after drug treatment, MDA-MB-361 cells, read-out: IC50 MDA-MB-361. The format is cell-based. A general note: Tetrazolium dyes change colour on reduction, which living cells bring about.
Assay [2] deals with human prostate PC3-mm2 tumor cell line. Nature of the assay: In vitro cell culture growth assay (MTS), PC3-mm2. Type of assay: cell-based. The note with it: Homo sapiens, PC3MM2, 72 h, MTS cell growth assay, three days after drug treatment, PC3-mm2 cells; read-out: IC50 PC3-mm2.
For a further assay, the target named is PI3K-α (Homo sapiens, UniProt P42336). Nature of the assay: PI3K-alpha fluorescence polarization assay. The note with it: read-out: IC50 PI3Kα.
Sequence of PI3K-α (P42336 whole entry, species assumed): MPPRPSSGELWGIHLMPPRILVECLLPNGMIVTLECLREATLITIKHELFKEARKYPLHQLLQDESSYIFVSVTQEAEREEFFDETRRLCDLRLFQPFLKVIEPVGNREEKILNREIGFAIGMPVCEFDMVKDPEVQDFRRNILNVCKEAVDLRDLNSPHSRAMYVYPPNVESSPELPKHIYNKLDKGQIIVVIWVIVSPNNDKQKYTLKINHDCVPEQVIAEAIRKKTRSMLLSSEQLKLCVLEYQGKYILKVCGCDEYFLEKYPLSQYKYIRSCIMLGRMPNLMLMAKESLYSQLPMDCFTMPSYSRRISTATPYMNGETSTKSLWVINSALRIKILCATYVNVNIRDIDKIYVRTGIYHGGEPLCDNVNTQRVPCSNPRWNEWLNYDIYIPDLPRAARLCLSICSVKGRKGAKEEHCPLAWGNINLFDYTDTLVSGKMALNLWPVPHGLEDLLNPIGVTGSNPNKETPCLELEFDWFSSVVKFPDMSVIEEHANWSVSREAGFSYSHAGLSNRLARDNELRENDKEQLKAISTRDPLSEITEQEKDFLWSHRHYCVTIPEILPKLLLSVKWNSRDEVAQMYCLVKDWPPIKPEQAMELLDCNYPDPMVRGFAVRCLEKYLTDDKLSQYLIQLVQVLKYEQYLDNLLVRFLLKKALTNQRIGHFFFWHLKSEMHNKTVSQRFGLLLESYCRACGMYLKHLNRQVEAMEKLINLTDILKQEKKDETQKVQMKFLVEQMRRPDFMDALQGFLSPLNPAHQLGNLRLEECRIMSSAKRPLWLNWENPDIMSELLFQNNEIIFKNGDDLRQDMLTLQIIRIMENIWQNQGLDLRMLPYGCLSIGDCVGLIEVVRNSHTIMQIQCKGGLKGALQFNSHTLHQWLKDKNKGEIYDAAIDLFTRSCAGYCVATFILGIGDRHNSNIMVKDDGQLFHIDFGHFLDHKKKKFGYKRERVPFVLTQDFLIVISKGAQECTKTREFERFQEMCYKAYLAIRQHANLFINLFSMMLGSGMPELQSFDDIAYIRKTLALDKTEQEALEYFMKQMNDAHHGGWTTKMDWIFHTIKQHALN
Sequence of PI3K-α (P27986 whole entry partner, species assumed): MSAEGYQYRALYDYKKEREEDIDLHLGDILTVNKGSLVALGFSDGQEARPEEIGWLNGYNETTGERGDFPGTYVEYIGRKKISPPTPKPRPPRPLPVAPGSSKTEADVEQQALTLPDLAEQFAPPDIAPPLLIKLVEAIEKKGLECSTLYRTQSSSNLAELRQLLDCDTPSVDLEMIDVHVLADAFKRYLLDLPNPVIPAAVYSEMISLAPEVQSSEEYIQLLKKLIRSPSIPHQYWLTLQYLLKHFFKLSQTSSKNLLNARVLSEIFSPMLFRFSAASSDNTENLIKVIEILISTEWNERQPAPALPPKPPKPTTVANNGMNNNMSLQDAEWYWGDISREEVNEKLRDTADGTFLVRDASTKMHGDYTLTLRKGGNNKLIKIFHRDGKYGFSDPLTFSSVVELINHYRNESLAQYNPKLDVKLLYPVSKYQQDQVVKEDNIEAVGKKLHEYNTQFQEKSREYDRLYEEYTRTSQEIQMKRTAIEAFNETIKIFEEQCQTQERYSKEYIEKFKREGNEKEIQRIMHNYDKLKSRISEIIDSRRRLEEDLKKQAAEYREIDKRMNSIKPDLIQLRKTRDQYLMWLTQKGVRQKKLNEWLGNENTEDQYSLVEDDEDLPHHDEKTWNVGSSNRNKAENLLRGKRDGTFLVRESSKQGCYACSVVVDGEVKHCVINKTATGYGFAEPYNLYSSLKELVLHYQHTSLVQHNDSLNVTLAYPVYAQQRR
The target in a further assay is PI3K-γ (Homo sapiens, UniProt P48736). Nature of the assay: PI3K-gamma fluorescence polarization assay. The settings on record: read-out: IC50 PI3Kγ. For orientation: Fluorescence polarisation rises when a labelled molecule tumbles more slowly, as on binding a larger partner.
Sequence of PI3K-γ (P48736 whole entry, species assumed): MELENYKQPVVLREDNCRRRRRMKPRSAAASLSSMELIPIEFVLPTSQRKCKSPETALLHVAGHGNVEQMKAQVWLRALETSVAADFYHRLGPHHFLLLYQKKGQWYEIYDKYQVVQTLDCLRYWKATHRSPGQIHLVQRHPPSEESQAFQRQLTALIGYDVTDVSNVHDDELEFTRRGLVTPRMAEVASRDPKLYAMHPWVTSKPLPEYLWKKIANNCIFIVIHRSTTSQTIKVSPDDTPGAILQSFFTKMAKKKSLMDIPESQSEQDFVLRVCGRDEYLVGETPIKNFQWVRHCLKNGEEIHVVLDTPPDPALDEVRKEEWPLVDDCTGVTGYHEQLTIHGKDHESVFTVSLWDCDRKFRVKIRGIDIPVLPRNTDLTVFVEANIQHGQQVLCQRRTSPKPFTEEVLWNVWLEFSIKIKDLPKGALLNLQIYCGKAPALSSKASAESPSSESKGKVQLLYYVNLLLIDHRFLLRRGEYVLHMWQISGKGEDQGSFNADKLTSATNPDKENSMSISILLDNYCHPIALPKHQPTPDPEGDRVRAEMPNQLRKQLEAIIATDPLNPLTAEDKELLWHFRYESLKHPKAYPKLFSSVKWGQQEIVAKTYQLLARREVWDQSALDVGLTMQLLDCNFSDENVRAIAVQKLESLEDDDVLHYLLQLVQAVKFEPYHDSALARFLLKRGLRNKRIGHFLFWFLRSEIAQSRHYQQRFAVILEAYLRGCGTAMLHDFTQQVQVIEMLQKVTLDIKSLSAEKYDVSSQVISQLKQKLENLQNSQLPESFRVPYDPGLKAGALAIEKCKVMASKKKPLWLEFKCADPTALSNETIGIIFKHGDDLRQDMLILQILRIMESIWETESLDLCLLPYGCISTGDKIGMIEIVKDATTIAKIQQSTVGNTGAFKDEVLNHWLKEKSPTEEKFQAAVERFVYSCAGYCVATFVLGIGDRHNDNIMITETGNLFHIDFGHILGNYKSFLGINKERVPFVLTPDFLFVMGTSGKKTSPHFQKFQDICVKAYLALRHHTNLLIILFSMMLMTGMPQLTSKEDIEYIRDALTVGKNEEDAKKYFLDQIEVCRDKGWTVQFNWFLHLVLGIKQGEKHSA

Like-named read-outs stand apart in the source and are kept apart here.

Sequence of Human mTOR (FLAG-TOR) (P42345 1360-2549 limits assumed): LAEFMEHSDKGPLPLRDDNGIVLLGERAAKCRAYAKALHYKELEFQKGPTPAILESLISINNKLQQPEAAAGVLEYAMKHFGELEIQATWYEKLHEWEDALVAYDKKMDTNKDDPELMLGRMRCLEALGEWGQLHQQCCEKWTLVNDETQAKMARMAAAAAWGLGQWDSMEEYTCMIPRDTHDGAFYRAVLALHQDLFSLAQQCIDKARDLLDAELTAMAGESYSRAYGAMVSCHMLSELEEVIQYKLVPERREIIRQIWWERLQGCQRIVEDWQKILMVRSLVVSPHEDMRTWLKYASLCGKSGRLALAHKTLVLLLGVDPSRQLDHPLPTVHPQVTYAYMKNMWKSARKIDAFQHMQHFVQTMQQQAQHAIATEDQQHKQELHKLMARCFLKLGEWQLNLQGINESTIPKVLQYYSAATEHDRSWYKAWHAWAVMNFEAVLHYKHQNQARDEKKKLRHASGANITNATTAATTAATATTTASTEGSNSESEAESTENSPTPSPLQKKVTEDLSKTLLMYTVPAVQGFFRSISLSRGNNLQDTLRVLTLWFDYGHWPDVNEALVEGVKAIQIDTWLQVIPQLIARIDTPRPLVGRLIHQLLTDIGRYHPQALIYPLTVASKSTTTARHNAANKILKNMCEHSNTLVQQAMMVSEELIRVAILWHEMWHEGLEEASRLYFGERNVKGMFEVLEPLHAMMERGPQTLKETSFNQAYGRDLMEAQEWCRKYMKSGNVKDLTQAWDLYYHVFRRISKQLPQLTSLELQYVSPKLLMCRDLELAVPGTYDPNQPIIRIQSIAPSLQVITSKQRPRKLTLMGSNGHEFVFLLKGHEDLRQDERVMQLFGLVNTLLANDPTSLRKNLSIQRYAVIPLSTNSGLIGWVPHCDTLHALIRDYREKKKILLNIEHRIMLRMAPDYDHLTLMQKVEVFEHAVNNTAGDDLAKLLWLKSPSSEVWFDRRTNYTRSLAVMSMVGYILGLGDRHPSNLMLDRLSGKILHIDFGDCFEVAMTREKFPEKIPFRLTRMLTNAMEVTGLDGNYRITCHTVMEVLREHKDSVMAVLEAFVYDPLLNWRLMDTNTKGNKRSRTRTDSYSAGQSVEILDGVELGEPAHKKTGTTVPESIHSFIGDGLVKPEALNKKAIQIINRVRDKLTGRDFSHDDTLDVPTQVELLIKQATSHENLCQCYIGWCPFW

Consider `CCN1CCN(C(=O)c2ccc(NC(=O)Nc3ccc(-c4nc(N5CCOCC5)nc(N5CCOC[C@@H]5C)n4)cc3)cc2)CC1` [Example 620, 1-{4-[(4-ethylpiperazin-1-yl)carbonyl]phenyl}-3-(4-{4-[(3S)-3-methylmorpholin-4-yl]-6-morpholin-4-yl-1,3,5-triazin-2-yl}phenyl)urea], for which the IC50 on Human mTOR (FLAG-TOR) amounted to 3 nM; in assay [1] (MDA-MB-361, 72 h) it was 4 nM; in assay [2] it was 16 nM; at PI3K-α it was 4 nM; at PI3K-γ, 32.5 nM.
Turning to `C[C@H]1COCCN1c1nc(-c2ccc(NC(=O)Nc3ccc(C(=O)NCCCN(C)C)cc3)cc2)nc(N2CCOCC2)n1` [Example 621, N-[3-(dimethylamino)propyl]-4-{[(4-{4-[(3S)-3-methylmorpholin-4-yl]-6-morpholin-4-yl-1,3,5-triazin-2-yl}phenyl)carbamoyl]amino}benzamide], the IC50 on Human mTOR (FLAG-TOR) worked out at 1 nM; in assay [1] (72 h) it was 8 nM; in assay [2] it was 35 nM; on PI3K-α, 3.5 nM; at PI3K-γ, 43.5 nM.
In the case of `C[C@@H]1COCCN1c1nc(-c2ccc(NC(=O)Nc3ccc(C(=O)N4CCN(C)CC4)cc3)cc2)nc(N2CCOC[C@@H]2C)n1` [Example 623, 1-(4-{4-[(3R)-3-methylmorpholin-4-yl]-6-[(3S)-3-methylmorpholin-4-yl]-1,3,5-triazin-2-yl}phenyl)-3-{4-[(4-methylpiperazin-1-yl)carbonyl]phenyl}urea], the IC50 on Human mTOR (FLAG-TOR) is 1 nM; in assay [1] (72 h), 6 nM; in assay [2], 32 nM; at PI3K-α, 12.5 nM; at PI3K-γ, 104 nM.
As for `CCCN(CCC)C1CCN(C(=O)c2ccc(NC(=O)Nc3ccc(-c4nc(N5CCOC[C@@H]5C)nc(N5CCOC[C@@H]5C)n4)cc3)cc2)CC1` [Example 624, 1-(4-{4,6-bis[(3S)-3-methylmorpholin-4-yl]-1,3,5-triazin-2-yl}phenyl)-3-(4-{[4-(dipropylamino)piperidin-1-yl]carbonyl}phenyl)urea], the IC50 on Human mTOR (FLAG-TOR) turned out to be 1 nM; in assay [1] (MDA-MB-361, 72 h), 4 nM; in assay [2], 19 nM; on PI3K-α, 17.5 nM; on PI3K-γ, 58.5 nM.
Take `CCN1CCN(C(=O)c2ccc(NC(=O)Nc3ccc(-c4nc(N5CCOC[C@H]5C)nc(N5CCOC[C@@H]5C)n4)cc3)cc2)CC1` [Example 625, 1-{4-[(4-ethylpiperazin-1-yl)carbonyl]phenyl}-3-(4-{4-[(3R)-3-methylmorpholin-4-yl]-6-[(3S)-3-methylmorpholin-4-yl]-1,3,5-triazin-2-yl}phenyl)urea]: the IC50 is 3 nM on Human mTOR (FLAG-TOR); 12 nM in assay [1] (72 h); 43 nM in assay [2]; 16.5 nM at PI3K-α; 102 nM on PI3K-γ.
On the same counts, the results for `CCCCN1CCN(C(=O)c2ccc(NC(=O)Nc3ccc(-c4nc(N5CCOC[C@H]5C)nc(N5CCOC[C@@H]5C)n4)cc3)cc2)CC1` [Example 627, 1-{4-[(4-butylpiperazin-1-yl)carbonyl]phenyl}-3-(4-{4-[(3R)-3-methylmorpholin-4-yl]-6-[(3S)-3-methylmorpholin-4-yl]-1,3,5-triazin-2-yl}phenyl)urea] are 2 nM, 16 nM, 55 nM, 18.5 nM and 102 nM.
As for `CCCCN1CCN(C(=O)c2ccc(NC(=O)Nc3ccc(-c4nc(N5CCOC[C@@H]5C)nc(N5CCOC[C@@H]5C)n4)cc3)cc2)CC1` [Example 629, 1-(4-{4,6-bis[(3S)-3-methylmorpholin-4-yl]-1,3,5-triazin-2-yl}phenyl)-3-{4-[(4-butylpiperazin-1-yl)carbonyl]phenyl}urea], the IC50 on Human mTOR (FLAG-TOR) came to 4 nM; in assay [1] (72 h), 28 nM; in assay [2], 133 nM; at PI3K-α, 26 nM; on PI3K-γ it was 95 nM.
`CC(C)N1CCN(C(=O)c2ccc(NC(=O)Nc3ccc(-c4nc(N5CCOC[C@H]5C)nc(N5CCOC[C@@H]5C)n4)cc3)cc2)CC1` [Example 630, 1-(4-{[4-(1-methylethyl)piperazin-1-yl]carbonyl}phenyl)-3-(4-{4-[(3R)-3-methylmorpholin-4-yl]-6-[(3S)-3-methylmorpholin-4-yl]-1,3,5-triazin-2-yl}phenyl)urea]: the IC50 was 1 nM at Human mTOR (FLAG-TOR); 5 nM in assay [1] (72 h); 23 nM in assay [2]; 13.5 nM at PI3K-α; 84.5 nM on PI3K-γ.
Turning to `CC(C)CN1CCN(C(=O)c2ccc(NC(=O)Nc3ccc(-c4nc(N5CCOC[C@@H]5C)nc(N5CCOC[C@@H]5C)n4)cc3)cc2)CC1` [Example 631, 1-(4-{4,6-bis[(3S)-3-methylmorpholin-4-yl]-1,3,5-triazin-2-yl}phenyl)-3-(4-{[4-(2-methylpropyl)piperazin-1-yl]carbonyl}phenyl)urea], the IC50 at Human mTOR (FLAG-TOR) came out at 4 nM; in assay [1] (72 h), 28 nM; in assay [2], 120 nM; on PI3K-α, 28 nM; on PI3K-γ it was 133 nM.
Consider `CCC(C)N1CCN(C(=O)c2ccc(NC(=O)Nc3ccc(-c4nc(N5CCOC[C@@H]5C)nc(N5CCOC[C@@H]5C)n4)cc3)cc2)CC1` (stereo partly drawn) [Example 632, 1-(4-{4,6-bis[(3S)-3-methylmorpholin-4-yl]-1,3,5-triazin-2-yl}phenyl)-3-(4-{[4-(1-methylpropyl)piperazin-1-yl]carbonyl}phenyl)urea], for which the IC50 came to 1 nM at Human mTOR (FLAG-TOR); 9 nM in assay [1] (72 h); 38 nM in assay [2]; 15 nM at PI3K-α; 74.5 nM on PI3K-γ.
Turning to `C[C@H]1COCCN1c1nc(-c2ccc(NC(=O)Nc3ccc(C(=O)NCCN4CCN(C)CC4)cc3)cc2)nc(N2CCOC[C@@H]2C)n1` [Example 633, 4-{[(4-{4,6-bis[(3S)-3-methylmorpholin-4-yl]-1,3,5-triazin-2-yl}phenyl)carbamoyl]amino}-N-[2-(4-methylpiperazin-1-yl)ethyl]benzamide], the IC50 is 1 nM at Human mTOR (FLAG-TOR); 15 nM in assay [1] (72 h); 64 nM in assay [2]; 11.5 nM on PI3K-α; 175 nM at PI3K-γ.
For `C[C@H]1COCCN1c1nc(-c2ccc(NC(=O)Nc3ccc(C(=O)N4CCCCC4)cc3)cc2)nc(N2CCOC[C@@H]2C)n1` [Example 637, 1-(4-{4,6-bis[(3S)-3-methylmorpholin-4-yl]-1,3,5-triazin-2-yl}phenyl)-3-[4-(piperidin-1-ylcarbonyl)phenyl]urea], the IC50 on Human mTOR (FLAG-TOR) turned out to be 4 nM; in assay [1] (MDA-MB-361, 72 h), 26 nM; in assay [2] it was 62 nM; at PI3K-α it was 21.5 nM; at PI3K-γ it was 190 nM.
`CCCN1CCN(C(=O)c2ccc(NC(=O)Nc3ccc(-c4nc(N5CCOC[C@@H]5C)nc(N5CCOC[C@@H]5C)n4)cc3)cc2)CC1` [Example 638, 1-(4-{4,6-bis[(3S)-3-methylmorpholin-4-yl]-1,3,5-triazin-2-yl}phenyl)-3-{4-[(4-propylpiperazin-1-yl)carbonyl]phenyl}urea]: the IC50 was 2 nM at Human mTOR (FLAG-TOR); 9 nM in assay [1] (72 h); 44 nM in assay [2]; 16 nM on PI3K-α; 114 nM on PI3K-γ.

What is called IC50 is the concentration at which inhibition is half-maximal.

These data come from patent publication US20090304692A1, “TRIAZINE COMPOUNDS AS PI3 KINASE AND MTOR INHIBITORS” (Wyeth, priority 2008, published 2009).
